Entries after “also recorded” stand apart in the source; their conditions may differ.
What was measured:
BV-2 cells = assay: Phagocytic activity, IncuCyte pHrodo; format: cell-based; settings: 1 µM; BV-2, LPS 1 μg/mL; apoptotic Jurkat target cells
Protocol: For the evaluation of phagocytic activity, compound 22 (MZ1490) was chosen as the most promising one on the basis of the results from the Griess assay. This compound was tested at a concentration of 1 µM, and phagocytosis was monitored in real time using an IncuCyte® pHrodo® Red Cell Labeling Kit (catalog no. 4766, Sartorius, Göttingen, Germany). […] It is interesting to note that the phagocytic activity exerted by untreated BV-2 cells is also related to the serum concentration. A healthy CNS maintains the BBB, and microglia are often highly ramified surveillance microglia without enhanced phagocytosis. […]
Phagocytosis was monitored in real time using the IncuCyte® pHrodo® Red Cell Labeling Kit. The principle of this test is based on the ability of the pHrodo to emit fluorescence in an acidic environment, which is precisely the environment inside the phagosome. If effector cells engulf labeled target cells and these enter the acidic phagosome, a substantial increase in fluorescence is observed. In this way, we can quantify phagocytosis. […] After this time, the labeled Jurkat apoptotic cells were added to the BV-2 cells at a density of 100,000 cells/well and the cells were monitored in an IncuCyte Live-Cell Analysis System. Repeat scanning to record phase and fluorescence images was carried out every 1 h, for up to 22 h. […]

CYP2D6 = molecular target: T1, CYP2D6 (Homo sapiens, UniProt P10635); assay: Drug-drug interactions, CYP2D6 P450-Glo; format: in vitro ADME; settings: 10 µM
T1 construct: purchased Promega (Madison, WI, USA)
T1 sequence (P10635 whole entry): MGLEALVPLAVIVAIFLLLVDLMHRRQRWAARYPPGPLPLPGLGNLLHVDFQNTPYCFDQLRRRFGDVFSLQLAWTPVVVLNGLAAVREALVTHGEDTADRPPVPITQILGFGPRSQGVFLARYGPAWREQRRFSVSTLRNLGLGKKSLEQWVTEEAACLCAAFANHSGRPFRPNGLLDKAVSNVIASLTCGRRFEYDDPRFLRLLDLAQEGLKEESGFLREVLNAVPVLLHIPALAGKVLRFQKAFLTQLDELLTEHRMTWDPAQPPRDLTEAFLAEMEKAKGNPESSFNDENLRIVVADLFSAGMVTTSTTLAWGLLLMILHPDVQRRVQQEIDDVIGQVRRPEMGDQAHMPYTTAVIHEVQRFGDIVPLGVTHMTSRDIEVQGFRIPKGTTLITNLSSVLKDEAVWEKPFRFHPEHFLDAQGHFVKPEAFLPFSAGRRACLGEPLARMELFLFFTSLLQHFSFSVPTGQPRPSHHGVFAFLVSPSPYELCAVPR
Protocol: To predict potential drug-drug interactions (DDI) effects on three of the most relevant cytochrome P450 (CYP), isoforms CYP3A4, CYP2D6 and CYP2C9 were investigated at a concentration of 10 µM. The results were compared with the effects of 1 µM of the selective inhibitors ketoconazole (CYP3A4), quinidine (CYP2D6) and sulfaphenazole (CYP2C9).
The influence of the tested compounds on recombinant human cytochromes was determined with the use of CYP3A4, CYP2D6 and CYP2C9 P450-Glo™ kits and protocols provided by Promega (Madison, WI, USA). Compounds were tested at a concentration of 10 μM. Reference inhibitors: Ketoconazole (CYP3A4), quinidine (CYP2D6) and sulfaphenazole (CYP2C9) were tested at 1 μM. The luminescent signals were measured using a microplate reader EnSpire PerkinElmer (Waltham, MA, USA).

SMILES: C#CCn1c(=O)c2c(nc(NCc3c(F)cccc3Cl)n2C)n(C)c1=O [compound 22, 8-((2-Chloro-6-fluorobenzyl)amino)-3,7-dimethyl-1-(prop-2-yn-1-yl)-3,7-dihydro-1H-purine-2,6-dione]
- effect on phagocytosis (in words) (BV-2 cells): protects microglia from LPS-induced inflammation and, therefore, also from phagocytosis; also recorded: protected from phagocytosis

SMILES: C#CCn1c(=O)c2c(nc(NCc3cccc(Br)c3)n2C)n(C)c1=O [compound 24, 8-((3-Bromobenzyl)amino)-3,7-dimethyl-1-(prop-2-yn-1-yl)-3,7-dihydro-1H-purine-2,6-dione]
- effect on CYP2D6 activity (in words) (CYP2D6): slight, statistically significant inhibition
